{"source": "patent US20240208972A1", "about": "“LRRK2 INHIBITORS AND USES THEREOF” (NEURON23, INC., priority 2022, published 2024)", "key": {"[1]": {"assay": "Human liver microsomal clearance (hLM Cl)", "type": "in vitro ADME", "details": "cells marked *"}, "[2]": {"biological_target": "T1, wt human LRRK2, catalytic site (Homo sapiens, UniProt Q5S007)", "T1 construct": "wt human LRRK2, catalytic site, catalytic site (ThermoFisher/USA); purchased ThermoFisher", "T1 sequence (Q5S007 1879-2138 limits assumed)": "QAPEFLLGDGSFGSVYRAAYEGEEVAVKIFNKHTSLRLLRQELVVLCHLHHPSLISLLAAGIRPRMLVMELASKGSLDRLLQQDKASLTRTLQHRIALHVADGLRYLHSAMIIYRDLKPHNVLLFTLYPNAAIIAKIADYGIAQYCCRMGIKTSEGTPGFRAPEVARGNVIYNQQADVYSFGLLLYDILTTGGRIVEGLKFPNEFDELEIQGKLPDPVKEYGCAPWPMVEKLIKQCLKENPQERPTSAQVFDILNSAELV", "assay": "TR-FRET LanthaScreen Tb Kinase Activity Assay, LRRK2 kinase inhibition", "type": "biochemical", "details": "2 nM wt human LRRK2, 400 nM peptide, 38 μM ATP", "how_it_was_run": "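TR-FRET LanthaScreen format: 2 nM wt human LRRK2 catalytic domain with 400 nM fluorescein-ERM (LRRKtide) and 38 μM ATP in Kinase Buffer A, after 15 min compound preincubation. Reaction 120 min at RT, then EDTA plus Tb-anti-pLRRKtide antibody for 60 min; emission ratios analysed per kit protocol.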"}, "Caco-2 cells": {"system": "Caco-2 cells", "assay": "Caco-2 bidirectional permeability", "type": "in vitro ADME", "details": "for Caco-2 A2B (10^−6 cm/s): A to B; for Caco-2 A2B (10^−6 cm/s) / Caco-2 B2A (10^−6 cm/s): HBSS pH 7.4, 2 hours; for Caco-2 B2A (10^−6 cm/s): B to A; for Caco-2 ER: Efflux Ratio=Papp (BA)/Papp (AB)", "how_it_was_run": "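Caco-2 monolayers grown 21–28 days on PET inserts were run in duplicate in HBSS with 10 mM HEPES, pH 7.4. Compound was tested in both directions at […] for 2 h at 37 °C and quantified by LC-MS/MS. Papp, % recovery and efflux ratio (B-A/A-B) were calculated, with lucifer yellow checking monolayer integrity.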"}, "[3]": {"assay": "Brain penetration (Kp,uu) in CD-1 mice, with plasma and brain tissue binding by equilibrium dialysis", "type": "in vivo", "details": "mouse, brain and plasma (unbound), male CD-1 mice, single IV bolus 1 mg/kg", "experimental": "The compounds disclosed herein were tested on CD-1 mice for brain penetration (Kp, uu) according to the following procedures.\nNine male CD-1 mice were administered TEST COMPOUND by single intravenous bolus administration at 1 mg/kg. The vehicle used for IV study was 5% DMSO, 5% solutol, 20% PEG300 and 70% water. The detailed dosing and sampling regimens are described in the following tables.\n1.0 mg of test compound was accurately weighed into a glass vial, and slowly added with 104 μL of DMSO and vortexed for 1 min. Then 104 μL of solutol was added and vortexed for 1 min. Then 415 μL of PEG300 was added and vortexed for 1 min. Then 1000 μL of water was added and vortexed for 1 min. Finally, 451 μL of water was added and vortexed for 1 min to get a clear solution.\nThe body weights were in the range from 28.81 to 31.25 g for males on the first dosing day. All animals received a single intravenous bolus administration of TEST COMPOUND from the tail vein.\nEach blood collection (about 0.06 mL per time point) was performed from saphenous vein of each animal into pre-chilled commercial K2-EDTA tubes as anti-coagulant and placed on wet ice until centrifugation.\nPlasma samples were then prepared by centrifuging the blood samples at approximately 4° C., 3200×g for 10 minutes. All plasma samples were then quickly frozen over dry ice and kept at −60° C. or lower until LC-MS/MS analysis.\nBrain tissue was homogenized using homogenizing buffer (15 mM PBS (pH7.4): MeOH=2:1) at the ratio of 1:9 (1 g tissue with 9 mL buffer, the dilution ratio is 10). The tissue homogenate was kept at −60° C. or lower until LC-MS/MS analysis.\nThe concentrations of TEST COMPOUND in plasma and brain were determined by using an LC-MS/MS method.\nThe plasma and brain concentration of TEST COMPOUND in study animals was subjected to a non-compartmental pharmacokinetic analysis by using the Phoenix WinNonlin software program (version 6.3 or above, Pharsight). The linear/log trapezoidal rule was applied in obtaining the PK parameters.\nIndividual plasma and brain concentration values that were below the lower limit of quantitation (LLOQ) were excluded from the PK parameter calculation. The nominal dose levels and nominal sampling times were used in the calculation of all pharmacokinetic parameters.\nMouse Kp, uu=(% free in mouse brain*concentration in mouse brain)/(% free in mouse plasma*concentration in mouse plasma)\nThe dialysis apparatus was assembled according to the manufacturer's instruction. Each Cell was filled with 120 μL of spiked plasma sample and dialyzed against equal volume of dialysis buffer (PBS). The assay was performed in duplicate. The dialysis plates were sealed and incubated in an incubator at 37° C. with 5% CO2 and rotated at 100 rpm for 6 hours. At the end of incubation, the seals were removed and 50 μL of samples from both buffer and plasma chambers were transferred to a 96-well plate.\nAll calculations were carried out using Microsoft Excel. The concentrations of test compound and control compound in the buffer and plasma chambers were determined from peak area ratios (PAR) of analyte to internal standard. Protein binding (% unbound and % bound) and recovery (% recovery) of test and control compounds was calculated as follows:\n• 1. Thawing of the frozen brain (stored at −80° C.) • Frozen brain tissue was thawed at room temperature in a bath. Only brain tissue was used that was thawed no more than once. • 2. Preparation of brain tissue homogenate • Brain tissue homogenate was prepared by diluting one quantity (g) of the whole brain tissue with three volumes (mL) of buffer (PBS, pH 7.4) and homogenizing the mixture using a tissue homogenizer. Brain tissue homogenate was frozen at −80° C. for later use/comparison. • 3. Preparation of working solutions • The working solutions of test compound and the control compound propranolol were prepared in dimethyl sulfoxide (DMSO) at the concentration of 200 μM. […]"}}, "data": [{"smiles": "Cc1n[nH]c2c1N=C(c1c(F)cccc1F)Nc1c-2cc(N2CCN(C)[C@@H](C(F)(F)F)C2)nc1C", "note": "(single isomer, unassigned) [Example 37]", "values": [{"measurement": "hLM Cl (mL/min/kg)", "setting": "[1]", "value": "I* (I (Intermediate C1)”: 6.3 mL/min/kg≤Hep Cl≤14.7 mL/min/kg)"}, {"measurement": "IC50", "setting": "[2]", "value": "< 2", "unit": "nM"}, {"measurement": "Caco-2 A2B (10^−6 cm/s)", "setting": "Caco-2 cells", "value": "H (H (High permeability)”: A2B (B2A)>5)"}, {"measurement": "Caco-2 B2A (10^−6 cm/s)", "setting": "Caco-2 cells", "value": "H (H (High permeability)”: A2B (B2A)>5)"}, {"measurement": "Caco-2 ER", "setting": "Caco-2 cells", "value": "N (N (Non-substrate)”: ER<2.5)"}, {"measurement": "Kp uu", "setting": "[3]", "value": "0.2 to 0.4"}]}, {"smiles": "Cc1n[nH]c2c1N=C(c1c(F)cccc1F)Nc1c-2cc(N2CCC[C@@]3(CCOC3)C2)nc1C", "note": "(single isomer, unassigned) [Example 49]", "values": [{"measurement": "hLM Cl (mL/min/kg)", "setting": "[1]", "value": "I* (I (Intermediate C1)”: 6.3 mL/min/kg≤Hep Cl≤14.7 mL/min/kg)"}, {"measurement": "IC50", "setting": "[2]", "value": "< 2", "unit": "nM"}, {"measurement": "Caco-2 A2B (10^−6 cm/s)", "setting": "Caco-2 cells", "value": "H (H (High permeability)”: A2B (B2A)>5)"}, {"measurement": "Caco-2 B2A (10^−6 cm/s)", "setting": "Caco-2 cells", "value": "H (H (High permeability)”: A2B (B2A)>5)"}, {"measurement": "Caco-2 ER", "setting": "Caco-2 cells", "value": "N (N (Non-substrate)”: ER<2.5)"}, {"measurement": "Kp uu", "setting": "[3]", "value": "0.2 to 0.4"}]}, {"smiles": "Cc1n[nH]c2c1N=C(c1c(F)cccc1F)Nc1ccc(N3CCN(C)C(C(F)(F)F)C3)cc1-2", "note": "(stereo not drawn) [Example 6, 5-(2,6-difluorophenyl)-3-methyl-9-[4-methyl-3-(trifluoromethyl)piperazin-1-yl]-1,6-dihydropyrazolo[4,3-d][1,3]benzodiazepine]", "values": [{"measurement": "hLM Cl (mL/min/kg)", "setting": "[1]", "value": "L* (L (Low C1)”: Hep Cl<6.3 mL/min/kg)"}, {"measurement": "IC50", "setting": "[2]", "value": "< 2", "unit": "nM"}, {"measurement": "Caco-2 A2B (10^−6 cm/s)", "setting": "Caco-2 cells", "value": "H (H (High permeability)”: A2B (B2A)>5)"}, {"measurement": "Caco-2 B2A (10^−6 cm/s)", "setting": "Caco-2 cells", "value": "H (H (High permeability)”: A2B (B2A)>5)"}, {"measurement": "Caco-2 ER", "setting": "Caco-2 cells", "value": "N (N (Non-substrate)”: ER<2.5)"}, {"measurement": "Kp uu", "setting": "[3]", "value": "0.2 to 0.4"}]}, {"smiles": "[2H]C([2H])([2H])c1n[nH]c2c1N=C(c1c(F)cccc1F)Nc1ccc(N3CCO[C@H](C)C3)cc1-2", "note": "[Example 11, (2R)-4-[5-(2,6-difluorophenyl)-3-(trideuteriomethyl)-1,6-dihydropyrazolo[4,3-d][1,3]benzodiazepin-9-yl]-2-methyl-morpholine]", "values": [{"measurement": "hLM Cl (mL/min/kg)", "setting": "[1]", "value": "L* (L (Low C1)”: Hep Cl<6.3 mL/min/kg)"}, {"measurement": "IC50", "setting": "[2]", "value": "2 to 100", "unit": "nM"}, {"measurement": "Caco-2 A2B (10^−6 cm/s)", "setting": "Caco-2 cells", "value": "H (H (High permeability)”: A2B (B2A)>5)"}, {"measurement": "Caco-2 B2A (10^−6 cm/s)", "setting": "Caco-2 cells", "value": "H (H (High permeability)”: A2B (B2A)>5)"}, {"measurement": "Caco-2 ER", "setting": "Caco-2 cells", "value": "N (N (Non-substrate)”: ER<2.5)"}, {"measurement": "Kp uu", "setting": "[3]", "value": "0.2 to 0.4"}]}, {"smiles": "Cc1n[nH]c2c1N=C(c1c(F)cccc1F)Nc1c-2cc(N2CCN(CCF)[C@@H](C)C2)nc1C", "note": "[Example 21, (S)-5-(2,6-difluorophenyl)-9-(4-(2-fluoroethyl)-3-methylpiperazin-1-yl)-3,7-dimethyl-1,6-dihydropyrazolo[4,3-d]pyrido[4,3-f][1,3]diazepine]", "values": [{"measurement": "hLM Cl (mL/min/kg)", "setting": "[1]", "value": "L* (L (Low C1)”: Hep Cl<6.3 mL/min/kg)"}, {"measurement": "IC50", "setting": "[2]", "value": "< 2", "unit": "nM"}, {"measurement": "Caco-2 A2B (10^−6 cm/s)", "setting": "Caco-2 cells", "value": "H (H (High permeability)”: A2B (B2A)>5)"}, {"measurement": "Caco-2 B2A (10^−6 cm/s)", "setting": "Caco-2 cells", "value": "H (H (High permeability)”: A2B (B2A)>5)"}, {"measurement": "Caco-2 ER", "setting": "Caco-2 cells", "value": "N (N (Non-substrate)”: ER<2.5)"}, {"measurement": "Kp uu", "setting": "[3]", "value": "0.2 to 0.4"}]}]}
